Laboratory results from US20260364184A1, “COMPOUND BASED ON OXOISOINDOLINYL-SUBSTITUTED TETRAHYDROPYRIMIDINE-DIONE AND USE THEREOF” (GLUETACS THERAPEUTICS (SHANGHAI) CO., LTD., priority 2023, published 2026).

Key:
AKT = assay: Western blot degradation of AKT; assay type: cell-based; conditions: hPBMC Cell; 24 hours
Method: Conventional Western blot assay was performed to evaluate the effects of the compounds of the present disclosure on the expression of target proteins in cells.
(1) Cell Seeding and Protein Harvesting: The selected cells were processed according to the cell seeding procedure and protein harvesting procedure in Table II-2.
(2) To the collected supernatant, 5×SDS sample loading buffer was added, followed by denaturation at 95 °C for 5 minutes. The denatured samples were then separated by SDS-PAGE electrophoresis on a polyacrylamide gel. Proteins were transferred to a nitrocellulose membrane (0.45 μm NC membrane), blocked with blocking buffer at room temperature for 1 hour, and subjected to antibody incubation and development procedures according to the antibody manufacturer's instructions (Cell Signaling Technology).
Half-Maximal Degradation Concentration value (the drug concentration required for degrading proteins by 50%, abbreviated as DC50) reads method: comparing the grayscale values of Western blot bands from drug-treated samples with those from blank DMSO-treated controls, and identifying the drug concentration range at which the grayscale value is half that of the DMSO-treated control bands.
DC50 values can be calculated using ImageJ software to measure grayscale values of Western blot bands from drug-treated samples. The concentration-response curve is fitted to estimate the drug concentration corresponding to half the grayscale value.
Target protein remaining (%) refers to the percentage of target protein remaining in cells after treatment with protein degrader compounds.
Calculation method for target protein remaining (%): Use ImageJ software to measure grayscale values of Western blot bands from drug (protein degrader)-treated samples. The grayscale value of drug-treated bands is divided by that of internal control protein bands, and the resulting quotient is normalized to obtain the relative percentage of remaining target protein after protein degrader treatment.
Target protein degradation rate (%)=1−target protein remaining (%).

[1] = test system: Human malignant melanoma cell line (A375); assay: Inhibition of A375 cell proliferation (CellTiter luminescent viability); conditions: A-375, Table III (II1), EZH2 inhibitor-based, 96 hours; for inhibition at 0.01 µM: A375, 10 nM, read-out: Inhibition Rate at 10 nM (%); for inhibition at 0.5 µM: A375, 500 nM, read-out: Inhibition Rate at 500 nM (%)
Method: (§1) The tumor cells used herein were cultured in a cell culture medium listed in table 3 at 37 °C in an incubator with 5% CO2. Prior to experimentation, all cell lines used were correctly identified by STR profiling, and tested negative for mycoplasma contamination using a mycoplasma detection kit through routine screenings.
(§2) The IC50 values of the compounds of the present disclosure (including the compounds in Table 1, Table 2, and Examples 1-468) were determined using the CellTiter-Meiluncell Luminescent Cell Viability Assay Kit from Dalian Meilun Biotech Co., Ltd. The detailed procedure is as follows: Tumor cells were seeded in 96-well cell culture plates at the densities specified in Table 4. On the following day, the test compounds of the present disclosure were subjected to serial dilution. The dilution can be performed according to one of the following two methods: • (1) The first dilution method: The test compounds of the present disclosure (including the compounds in Table 1, Table 2, and Examples 1-468) were subjected to 5-fold serial dilutions starting from a highest concentration of 2000 μM, resulting in a total of 9 concentrations from high to low (2000, 400, 80, 16, 3.2, 0.64, 0.128, 0.0256, 0.00512 μM). Subsequently, 0.5 μL of the test compound dilution was transferred into the 96-well plate containing the cells, with each well containing 100 μL of cell culture medium. […] Into the 96-well plate, the diluted test compounds and corresponding detection reagents were added, resulting in final test compound concentrations of 500 nM and 10 nM, respectively. The experimental procedure is described below using the diluted 2 μM test compound as an example.
(§3) 0.5 μL of the aforementioned diluted compound of the present disclosure (including the compounds in Table 1, Table 2, and Examples 1-468) was added to the seeded cells in 100 μL of medium, yielding a final test compound concentration of 10 nM. After the cells were treated with the compounds of the present disclosure for a specified period, the cell viability assay reagent was added to the culture medium according to the kit's instructions to determine cell viability. […] All controls were treated using the same procedure as the compounds of the present disclosure. The growth inhibition curves for the compounds of the present disclosure were plotted using Prism GraphPad software, and the IC50 values were calculated therefrom.

[2] = test system: Human neuroblastoma cell line (SK-N-AS); assay: Inhibition of SK-N-AS cell proliferation (CellTiter luminescent viability); assay type: cell-based; conditions: Table II2, EZH2 inhibitor-based, 96 hours
Method: as §1, §2, §3

`Nc1ncccc1-c1nc2ccc(-c3ccccc3)nc2n1-c1ccc(C2(NCC3CCN(c4ccc5c(c4)C(=O)N(N4CCC(=O)NC4=O)C5=O)CC3)CCC2)cc1` [GT-08583, 5-(4-(((1-(4-(2-(2-aminopyridin-3-yl)-5-phenyl-3H-imidazo[4,5-b]pyridin-3-yl)phenyl)cyclobutyl)amino)methyl)piperidin-1-yl)-2-(2,4-dioxotetrahydropyrimidin-1(2H)-yl)isoindoline-1,3-dione] was tested, and the “Degradation of substrate protein AKT (substrate protein remaining %)” value (“Degradation … (substrate protein remaining %)” below) (AKT) was “A (0%≤substrate protein remaining %≤80%)”.
For `Cn1ncc(Cl)c1-c1cc(C(=O)N[C@@H](Cc2cccc(F)c2)CN2CCN(CC3CCN(c4ccc5c(c4)C(=O)N(N4CCC(=O)NC4=O)C5=O)CC3)CC2)sc1Cl` [GT-08586, (S)-5-chloro-4-(4-chloro-1-methyl-1H-pyrazol-5-yl)-N-(1-(4-((1-(2-(2,4-dioxotetrahydropyrimidin-1(2H)-yl)-1,3-dioxoisoindolin-5-yl)piperidin-4-yl)methyl)piperazin-1-yl)-3-(3-fluorophenyl)propan-2-yl)thiophene-2-carboxamide], the “Degradation … (substrate protein remaining %)” value (AKT) was “A (0%≤substrate protein remaining %≤80%)”.
For `Cn1ncc(Cl)c1-c1cc(C(=O)N[C@H](CNCc2ccc3c(c2)CN(N2CCC(=O)NC2=O)C3=O)Cc2cccc(F)c2)sc1Cl` [GT-08572, (S)-5-chloro-4-(4-chloro-1-methyl-1H-pyrazol-5-yl)-N-(1-(((2-(2,4-dioxotetrahydropyrimidin-1(2H)-yl)-1-oxoisoindolin-5-yl)methyl)amino)-3-(3-fluorophenyl)propan-2-yl)thiophene-2-carboxamide], the “Degradation … (substrate protein remaining %)” value (AKT) was “A (0%≤substrate protein remaining %≤80%)”.
With `Cn1ncc(Cl)c1-c1cc(C(=O)N[C@@H](Cc2ccc(F)c(F)c2)CN2CCN(Cc3ccc4c(c3)C(=O)N(N3CCC(=O)NC3=O)C4=O)CC2)oc1Cl` [GT-08580, (S)-5-chloro-4-(4-chloro-1-methyl-1H-pyrazol-5-yl)-N-(1-(3,4-difluorophenyl)-3-(4-((2-(2,4-dioxotetrahydropyrimidin-1(2H)-yl)-1,3-dioxoisoindolin-5-yl)methyl)piperazin-1-yl)propan-2-yl) furan-2-carboxamide] the “Degradation … (substrate protein remaining %)” value (AKT) was “A (0%≤substrate protein remaining %≤80%)”.
Compound `CCN(c1cc(-c2ccc(CN3CCN(Cc4ccc5c(c4)CN(N4CCC(=O)NC4=O)C5=O)CC3)cc2)cc(C(=O)NCc2c(C)cc(C)[nH]c2=O)c1C)C1CCOCC1` [GT-08508, N-((4,6-dimethyl-2-oxo-1,2-dihydropyridin-3-yl)methyl)-4′-((4-((2-(2,4-dioxotetrahydropyrimidin-1(2H)-yl)-1-oxoisoindolin-5-yl)methyl)piperazin-1-yl)methyl)-5-(ethyl(tetrahydro-2H-pyran-4-yl)amino)-4-methyl-[1,1′-biphenyl]-3-carboxamide] has an inhibition at 0.01 µM [1] of 20 to 30% and an inhibition at 0.5 µM [1] of 20 to 30%.
`CCN(c1cc(-c2ccc(N3CCN(C4CCN(Cc5ccc6c(c5)C(=O)N(N5CCC(=O)NC5=O)C6=O)CC4)CC3)cc2)cc(C(=O)NCc2c(C)cc(C)[nH]c2=O)c1C)C1CCOCC1` [GT-08515, N-((4,6-dimethyl-2-oxo-1,2-dihydropyridin-3-yl)methyl)-4′-(4-(1-((2-(2,4-dioxotetrahydropyrimidin-1(2H)-yl)-1,3-dioxoisoindolin-5-yl)methyl)piperidin-4-yl)piperazin-1-yl)-5-(ethyl(tetrahydro-2H-pyran-4-yl)amino)-4-methyl-[1,1′-biphenyl]-3-carboxamide] gave an inhibition at 0.01 µM ([2]; 10 nM, read-out: Inhibition Rate at 10 nM (%)) of 20 to 30%, an inhibition at 0.5 µM ([2]; 500 nM, read-out: Inhibition Rate at 500 nM (%)) of 20 to 30% and an inhibition at 0.01 µM [1] of 20 to 30%. For the same compound, the inhibition at 0.5 µM [1] was 20 to 30%.
For `Nc1ncccc1-c1nc2ccc(-c3ccccc3)nc2n1-c1ccc(C2(NCc3ccc4c(c3)CN(N3CCC(=O)NC3=O)C4=O)CCC2)cc1` [GT-08573, 1-(5-(((1-(4-(2-(2-aminopyridin-3-yl)-5-phenyl-3H-imidazo[4,5-b]pyridin-3-yl)phenyl)cyclobutyl)amino)methyl)-1-oxoisoindolin-2-yl)dihydropyrimidine-2,4 (1H,3H)-dione], the “Degradation … (substrate protein remaining %)” value (AKT) was “A (0%≤substrate protein remaining %≤80%)”.
Work on `CCN(c1cc(-c2ccc(CN3CCOCC3)cc2)cc(C(=O)NCc2c(C)cc(C)[nH]c2=O)c1C)C1CCOCC1` [Tazemetostat, reference compound] yielded an inhibition at 0.01 µM [1] of 0 to 5% and an inhibition at 0.5 µM [1] of 0 to 5%.
With `Cn1ncc(Cl)c1-c1cc(C(=O)N[C@H](CNCC2CCN(c3ccc4c(c3)C(=O)N(N3CCC(=O)NC3=O)C4=O)CC2)Cc2cccc(F)c2)sc1Cl` [GT-08582, (S)-5-chloro-4-(4-chloro-1-methyl-1H-pyrazol-5-yl)-N-(1-(((1-(2-(2,4-dioxotetrahydropyrimidin-1(2H)-yl)-1,3-dioxoisoindolin-5-yl)piperidin-4-yl)methyl)amino)-3-(3-fluorophenyl)propan-2-yl)thiophene-2-carboxamide] the “Degradation … (substrate protein remaining %)” value (AKT) was “A (0%≤substrate protein remaining %≤80%)”.
In the case of `Cn1ncc(Cl)c1-c1cc(C(=O)N[C@@H](Cc2cccc(F)c2)CN2CCN(Cc3ccc4c(c3)C(=O)N(N3CCC(=O)NC3=O)C4=O)CC2)sc1Cl` [GT-08581, (S)-5-chloro-4-(4-chloro-1-methyl-1H-pyrazol-5-yl)-N-(1-(4-((2-(2,4-dioxotetrahydropyrimidin-1(2H)-yl)-1,3-dioxoisoindolin-5-yl)methyl)piperazin-1-yl)-3-(3-fluorophenyl)propan-2-yl)thiophene-2-carboxamide], the “Degradation … (substrate protein remaining %)” value (AKT) is reported as “A (0%≤substrate protein remaining %≤80%)”.
`Nc1ncccc1-c1nc2ccc(-c3ccccc3)nc2n1-c1ccc(C2(NCc3ccc4c(c3)C(=O)N(N3CCC(=O)NC3=O)C4=O)CCC2)cc1` [GT-08578, 5-(((1-(4-(2-(2-aminopyridin-3-yl)-5-phenyl-3H-imidazo[4,5-b]pyridin-3-yl)phenyl)cyclobutyl)amino)methyl)-2-(2,4-dioxotetrahydropyrimidin-1(2H)-yl)isoindoline-1,3-dione] was tested, and the “Degradation … (substrate protein remaining %)” value (AKT) was “A (0%≤substrate protein remaining %≤80%)”.
In the case of `Cn1ncc(Cl)c1-c1cc(C(=O)N[C@@H](Cc2ccc(F)c(F)c2)CN2CCN(Cc3ccc4c(c3)CN(N3CCC(=O)NC3=O)C4=O)CC2)oc1Cl` [GT-08575, (S)-5-chloro-4-(4-chloro-1-methyl-1H-pyrazol-5-yl)-N-(1-(3,4-difluorophenyl)-3-(4-((2-(2,4-dioxotetrahydropyrimidin-1(2H)-yl)-1-oxoisoindolin-5-yl)methyl)piperazin-1-yl)propan-2-yl) furan-2-carboxamide], the “Degradation … (substrate protein remaining %)” value (AKT) is reported as “A (0%≤substrate protein remaining %≤80%)”.
For `Cn1ncc(Cl)c1-c1cc(C(=O)N[C@H](CNCc2ccc3c(c2)C(=O)N(N2CCC(=O)NC2=O)C3=O)Cc2ccc(F)c(F)c2)oc1Cl` [GT-08579, (S)-5-chloro-4-(4-chloro-1-methyl-1H-pyrazol-5-yl)-N-(1-(3,4-difluorophenyl)-3-(((2-(2,4-dioxotetrahydropyrimidin-1(2H)-yl)-1,3-dioxoisoindolin-5-yl)methyl)amino)propan-2-yl) furan-2-carboxamide], the “Degradation … (substrate protein remaining %)” value (AKT) was “A (0%≤substrate protein remaining %≤80%)”.
